Test results: patent publication US20210032257A1, “(E)-1-(4-(DIMETHYLAMINO)BUT-2-ENOYL)PYRROLIDIN-3-YL 4-((3-ISOPROPYL-5-METHYLPYRAZOLO[1,5-A]PYRIMIDIN-7-YL)AMINO)PIPERIDINE-1-CARBOXYLATE FOR INHIBITING CDK7” (Eli Lilly and Company, priority 2017, published 2021)

Columns and labels:
Test in all cases: Biomarker study proliferation (CellTiter-Glo)
Type in all cases: cell-based
COV318 = conditions: COV318, OVARY, 7 days
Summary of the method: (§1)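 First, cells are plated at 5000 per well and left overnight at 37 °C. Next, compound is added as a 10-point threefold series (10× dosing plate to 1× final). Then plates incubate 7 days, and CellTiter-Glo luminescence is measured.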

SW480 = tested on: SW480
Summary of the method: as §1

SNU5 = tested on: SNU5
Summary of the method: as §1

SAOS2 = tested on: SAOS2
Summary of the method: as §1

NCIH2347 = tested on: NCIH2347
Summary of the method: as §1

CORL311 = tested on: CORL311
Summary of the method: as §1

KYSE180 = tested on: KYSE180
Summary of the method: as §1

IMR32 = tested on: IMR32
Summary of the method: as §1

MDAMB453 = tested on: MDAMB453
Summary of the method: as §1

NCIH69 = tested on: NCIH69
Summary of the method: as §1

HCC70 = tested on: HCC70
Summary of the method: as §1

JHH7 = tested on: JHH7
Summary of the method: as §1

CORL88 = tested on: CORL88
Summary of the method: as §1

HOS = tested on: HOS
Summary of the method: as §1

SW1271 = tested on: SW1271
Summary of the method: as §1

COLO201 = tested on: COLO201
Summary of the method: as §1

RT112 = tested on: RT112
Summary of the method: as §1

SW626 = tested on: SW626
Summary of the method: as §1

[1] = 168 h, read-out: Anti-proliferation effect IC50

In the case of `Cc1cc(NC2CCN(C(=O)O[C@H]3CCN(C(=O)/C=C/CN(C)C)C3)CC2)n2ncc(C(C)C)c2n1` [Example 1, [(3S)-1-[(E)-4-(dimethylamino)but-2-enoyl]pyrrolidin-3-yl] 4-[(3-isopropyl-5-methyl-pyrazolo[1,5-a]pyrimidin-7-yl)amino]piperidine-1-carboxylate], the IC50 (COV318; [1]) is reported as > 10 µM, the “Anti-proliferation effect % Inh.” value (COV318) is reported as 40% and the IC50 (SW480; Homo sapiens, SW480, 168 h, read-out: Anti-proliferation effect IC50) is reported as 0.036 µM. The “Anti-proliferation effect % Inh.” value (SW480; SW480, INTESTINE, 7 days) was 90%, the “Anti-proliferation effect Outcome” value (SW480; SW480, INTESTINE, 7 days) was “Cytotoxic (cytotoxic (IC50<1 μM and % inhibition ≥70%))” and the IC50 (SNU5; Homo sapiens, SNU-5, 168 h, read-out: Anti-proliferation effect IC50) was 0.039 µM. For the same compound, the “Anti-proliferation effect % Inh.” value (SNU5; SNU5, STOMACH, 7 days) was 79%, the “Anti-proliferation effect Outcome” value (SNU5; SNU5, STOMACH, 7 days) was “Cytotoxic (cytotoxic (IC50<1 μM and % inhibition ≥70%))” and the IC50 (SAOS2; Homo sapiens, SAOS-2, 168 h, read-out: Anti-proliferation effect IC50) was 0.028 µM. For the same compound, the “Anti-proliferation effect % Inh.” value (SAOS2; SAOS2, BONE, 7 days) was 66%, the “Anti-proliferation effect Outcome” value (SAOS2; SAOS2, BONE, 7 days) was “Cytostatic (cytostatic (IC50<1 μM and % inhibition <70%))” and the IC50 (NCIH2347; Homo sapiens, NCI-H2347, 168 h, read-out: Anti-proliferation effect IC50) was 0.661 µM. For the same compound, the “Anti-proliferation effect % Inh.” value (NCIH2347; NCIH2347, LUNG, 7 days) was 45%, the “Anti-proliferation effect Outcome” value (NCIH2347; NCIH2347, LUNG, 7 days) was “Cytostatic (cytostatic (IC50<1 μM and % inhibition <70%))” and the IC50 (CORL311; [1]) was 0.095 µM. For the same compound, the “Anti-proliferation effect % Inh.” value (CORL311; CORL311, LUNG, 7 days) was 75%, the “Anti-proliferation effect Outcome” value (CORL311; CORL311, LUNG, 7 days) was “Cytotoxic (cytotoxic (IC50<1 μM and % inhibition ≥70%))” and the IC50 (KYSE180; Homo sapiens, KYSE-180, 168 h, read-out: Anti-proliferation effect IC50) was 0.103 µM. For the same compound, the “Anti-proliferation effect % Inh.” value (KYSE180; KYSE180, OESOPHAGUS, 7 days) was 68%, the “Anti-proliferation effect Outcome” value (KYSE180; KYSE180, OESOPHAGUS, 7 days) was “Cytostatic (cytostatic (IC50<1 μM and % inhibition <70%))” and the IC50 (IMR32; Homo sapiens, IMR-32, 168 h, read-out: Anti-proliferation effect IC50) was 0.002 µM. For the same compound, the “Anti-proliferation effect % Inh.” value (IMR32; IMR32, CNS, 7 days) was 100%, the “Anti-proliferation effect Outcome” value (IMR32; IMR32, CNS, 7 days) was “Cytotoxic (cytotoxic (IC50<1 μM and % inhibition ≥70%))” and the IC50 (MDAMB453; Homo sapiens, MDA-MB-453, 168 h, read-out: Anti-proliferation effect IC50) was 0.039 µM. The “Anti-proliferation effect % Inh.” value (MDAMB453; MDAMB453, BREAST, 7 days) was 56%, the “Anti-proliferation effect Outcome” value (MDAMB453; MDAMB453, BREAST, 7 days) was “Cytostatic (cytostatic (IC50<1 μM and % inhibition <70%))” and the IC50 (NCIH69; Homo sapiens, NCI-H69, 168 h, read-out: Anti-proliferation effect IC50) was 0.173 µM. The “Anti-proliferation effect % Inh.” value (NCIH69; NCIH69, LUNG, 7 days) was 68%, the “Anti-proliferation effect Outcome” value (NCIH69; NCIH69, LUNG, 7 days) was “Cytostatic (cytostatic (IC50<1 μM and % inhibition <70%))” and the “Anti-proliferation effect % Inh.” value (HCC70; HCC70, BREAST, 7 days) was 89%. The “Anti-proliferation effect Outcome” value (HCC70; HCC70, BREAST, 7 days) was “Cytotoxic (cytotoxic (IC50<1 μM and % inhibition ≥70%))”, the IC50 (HCC70; Homo sapiens, HCC70, 168 h, read-out: Anti-proliferation effect IC50) was 0.038 µM and the IC50 (JHH7; JHH7, 168 h, read-out: Anti-proliferation effect IC50) was 0.027 µM. The “Anti-proliferation effect % Inh.” value (JHH7; JHH7, LIVER, 7 days) was 88%, the “Anti-proliferation effect Outcome” value (JHH7; JHH7, LIVER, 7 days) was “Cytotoxic (cytotoxic (IC50<1 μM and % inhibition ≥70%))” and the “Anti-proliferation effect % Inh.” value (CORL88; CORL88, LUNG, 7 days) was 34%. The “Anti-proliferation effect Outcome” value (CORL88; CORL88, LUNG, 7 days) was “Insensitive (insensitive (IC50≥1 μM))”, the IC50 (CORL88; Homo sapiens, COR-L88, 168 h, read-out: Anti-proliferation effect IC50) was 4.2 µM and the “Anti-proliferation effect % Inh.” value (HOS; BONE, 7 days) was 72%. For the same compound, the “Anti-proliferation effect Outcome” value (HOS; BONE, 7 days) was “Cytotoxic (cytotoxic (IC50<1 μM and % inhibition ≥70%))”, the IC50 (HOS; Homo sapiens, 168 h, read-out: Anti-proliferation effect IC50) was 0.09 µM and the IC50 (SW1271; SW1271, 168 h, read-out: Anti-proliferation effect IC50) was 0.024 µM. For the same compound, the “Anti-proliferation effect % Inh.” value (SW1271; SW1271, LUNG, 7 days) was 67%, the “Anti-proliferation effect Outcome” value (SW1271; SW1271, LUNG, 7 days) was “Cytostatic (cytostatic (IC50<1 μM and % inhibition <70%))” and the “Anti-proliferation effect % Inh.” value (COLO201; COLO201, INTESTINE, 7 days) was 61%. For the same compound, the “Anti-proliferation effect Outcome” value (COLO201; COLO201, INTESTINE, 7 days) was “Cytostatic (cytostatic (IC50<1 μM and % inhibition <70%))”, the IC50 (COLO201; Homo sapiens, COLO 201, 168 h, read-out: Anti-proliferation effect IC50) was 0.123 µM and the IC50 (RT112; Homo sapiens, RT-112, 168 h, read-out: Anti-proliferation effect IC50) was 0.032 µM. The “Anti-proliferation effect % Inh.” value (RT112; RT112, URINARY, 7 days) was 87%, the “Anti-proliferation effect Outcome” value (RT112; RT112, URINARY, 7 days) was “Cytotoxic (cytotoxic (IC50<1 μM and % inhibition ≥70%))” and the IC50 (SW626; Homo sapiens, SW626, 168 h, read-out: Anti-proliferation effect IC50) was 1.1 µM. The “Anti-proliferation effect % Inh.” value (SW626; SW626, 7 days) was 39% and the “Anti-proliferation effect Outcome” value (SW626; SW626, 7 days) was “Insensitive (insensitive (IC50≥1 μM))”.
